These results are taken from ChEMBL document CHEMBL4808201, “Novel triazole-sulfonamide bearing pyrimidine moieties with carbonic anhydrase inhibitory action: Design, synthesis, computational and enzyme inhibition studies” (Bioorg Med Chem Lett, 2021).

In this test the target is Carbonic anhydrase 9 (Homo sapiens, UniProt Q16790). As to the kind of experiment: Inhibition of human CA9 measured by stopped flow CO2 hydrase assay.

The term Ki denotes a measure of affinity in units of concentration, obtained from inhibition or displacement. Higher therefore signals lower affinity.

The structures appear in SMILES notation.

On to `NS(=O)(=O)c1ccc(-n2cc(COc3ccnc(N4CCN(C(c5ccccc5)c5ccccc5)CC4)n3)nn2)cc1`, for which the Ki was found to be 192 nM.
For `COc1ccccc1N1CCN(c2nccc(OCc3cn(-c4ccc(S(N)(=O)=O)cc4)nn3)n2)CC1`, the inhibition constant Ki amounted to 44.7 nM. This Ki is about 4.3-fold lower than that of the molecule before.
Molecule `Cc1cc(OCc2cn(-c3ccc(S(N)(=O)=O)cc3)nn2)nc(N2CCOCC2)n1` returned a Ki of 30.2 nM.
The molecule `Cc1cc(OCc2cn(-c3ccc(S(N)(=O)=O)cc3)nn2)nc(N2CCN(c3ccc(F)cc3)CC2)n1` yielded a Ki of 466 nM.
The molecule `CCN1CCN(c2nc(C)cc(OCc3cn(-c4ccc(S(N)(=O)=O)cc4)nn3)n2)CC1` showed a Ki of 16.1 nM. Against the preceding molecule, the Ki is about 29-fold lower.
Then `Cc1cc(OCc2cn(-c3ccc(S(N)(=O)=O)cc3)nn2)nc(N2CCN(c3ccccc3)CC2)n1`, with 32.8 nM.
As for `Cc1cc(OCc2cn(-c3ccc(S(N)(=O)=O)cc3)nn2)nc(N2CCN(C)CC2)n1`, affinity was put at a Ki of 24.1 nM.
The molecule `NS(=O)(=O)c1ccc(-n2cc(COc3ccnc(N4CCCCC4)n3)nn2)cc1` gave a Ki of 41.3 nM.
`NS(=O)(=O)c1ccc(-n2cc(COc3ccnc(N4CCN(c5ccccn5)CC4)n3)nn2)cc1` registered a Ki of 16.8 nM.
Molecule `NS(=O)(=O)c1ccc(-n2cc(COc3ccnc(N4CCN(c5ccc(F)cc5)CC4)n3)nn2)cc1` showed a Ki of 25.8 nM.
`Cc1cc(OCc2cn(-c3ccc(S(N)(=O)=O)cc3)nn2)nc(-c2ncccc2C#N)n1` gave a Ki of 32 nM.
The molecule `COc1ccccc1N1CCN(c2nc(C)cc(OCc3cn(-c4ccc(S(N)(=O)=O)cc4)nn3)n2)CC1` displayed a Ki of 36.3 nM.
The same measure for `N#Cc1cccnc1-c1nccc(OCc2cn(-c3ccc(S(N)(=O)=O)cc3)nn2)n1`: 155 nM.
Molecule `CCN1CCN(c2nccc(OCc3cn(-c4ccc(S(N)(=O)=O)cc4)nn3)n2)CC1` displayed a Ki of 22.7 nM.
Regarding `CCOC(=O)N1CCN(c2nc(C)cc(OCc3cn(-c4ccc(S(N)(=O)=O)cc4)nn3)n2)CC1`, the Ki is 33.4 nM. The Ki values of the last two molecules are within 1.5-fold of each other.
Molecule `Cc1cc(OCc2cn(-c3ccc(S(N)(=O)=O)cc3)nn2)nc(N2CCN(c3ccccn3)CC2)n1` displayed a Ki of 9.1 nM. Compared with the last molecule, the Ki is about 3.7-fold lower.
In turn, `COc1ccc(-c2nc(C)cc(OCc3cn(-c4ccc(S(N)(=O)=O)cc4)nn3)n2)cc1` gave a Ki of 29.7 nM.
Turning to `CCOC(=O)N1CCN(c2nccc(OCc3cn(-c4ccc(S(N)(=O)=O)cc4)nn3)n2)CC1`, the Ki was 1.6 nM.
Take `CN1CCN(c2nccc(OCc3cn(-c4ccc(S(N)(=O)=O)cc4)nn3)n2)CC1`: the Ki was 30.4 nM.
`NS(=O)(=O)c1ccc(-n2cc(COc3ccnc(N4CCN(Cc5ccccc5)CC4)n3)nn2)cc1` registered a Ki of 39.1 nM.
`Cc1cc(OCc2cn(-c3ccc(S(N)(=O)=O)cc3)nn2)nc(N2CCN(Cc3ccccc3)CC2)n1` gave a Ki of 41.1 nM. This Ki and that of the molecule before are within 1.5-fold of each other.
`COc1ccc(-c2nccc(OCc3cn(-c4ccc(S(N)(=O)=O)cc4)nn3)n2)cc1` registered a Ki of 51.4 nM.
In the case of `Cc1cc(OCc2cn(-c3ccc(S(N)(=O)=O)cc3)nn2)nc(N2CCN(C(c3ccccc3)c3ccccc3)CC2)n1`, the Ki came out at 21.4 nM.
The same measure for `NS(=O)(=O)c1ccc(-n2cc(COc3ccnc(N4CCN(c5ccccc5)CC4)n3)nn2)cc1`: 26.3 nM; for `Cc1cc(OCc2cn(-c3ccc(S(N)(=O)=O)cc3)nn2)nc(N2CCN(Cc3ccc(Cl)cc3)CC2)n1`: 2.9 nM.
As to `NS(=O)(=O)c1ccc(-n2cc(COc3ccnc(N4CCOCC4)n3)nn2)cc1`, the Ki is 42.5 nM.
The same measure for `Cc1cc(OCc2cn(-c3ccc(S(N)(=O)=O)cc3)nn2)nc(N2CCCCC2)n1`: 35.8 nM; for `NS(=O)(=O)c1ccc(-n2cc(COc3ccnc(N4CCN(Cc5ccc(Cl)cc5)CC4)n3)nn2)cc1`: 32.2 nM.
